Laboratory results: US8268775B2, “Macrolactone derivatives” (Sanofi, priority 2007, dated 2012)
In brackets after ≈: the same amount, converted by molar mass.

Tested on: Candida albicans FH 2173
Experiment: Antifungal activity against Candida albicans, bouillon dilution method (microdilution)
Type: cell-based
Details: FH2173, growth inhibition by 50%, Mueller Hinton broth, 37° C., 20 hours, absorption at 590 nm
Description: For the detection of the antifungal activity of rapidly growing, aerobic causative organisms, the bouillon dilution method (microdilution) according to a procedure of the CLSI (Clinical and Laboratory Standards Institute, M7-A7, Vol. 26, No. 2) is used. The IC50 value was determined. This is the concentration of an active substance which is necessary in order to inhibit the growth of the test organism Candida albicans by 50%.
A stock solution of 1000 μg/ml of active substance [for example the compound of the formula (II) or the compound of the formula (IV)] in methanol was prepared. The test strain (Candida albicans FH 2173) was stored at −80° C. The inoculum was prepared from a fresh, liquid preculture. The preculture was prepared from a bead of the material stored at −80° C. and 30 ml of nutrient medium (Sabourad dextrose broth, Difco) and incubated at 37° C. and 180 revolutions per minute for 24 hours. The inoculum is to be adjusted such that after the inoculation of the test container the necessary number of colony-forming units is achieved. For this, the inoculum was adjusted to a value of 10^7 CFU/ml (CFU: colony forming units) by means of a photometer at a wavelength of 590 nm. […] The exact colony count was determined by means of surface culture. […] The microtiter plates were read with the aid of a photometer at a wavelength of 590 nm by measurement of the absorption. […]

Compound	IC50
CCC(C)C1C(=O)NC(Cc2cc(Cl)c(O)c(Cl)c2)C(=O)NC(C(C)(C)O)C(=O)OC(c2ccccc2)C(C)/C=C/C=C(\C)C(OC)CC2OC2(C)C(=O)N1C (centres unmarked) [Compound (II)]	0.06 µg/mL (≈ 0.0735 µM)
CCC(C)C1C(=O)NC(Cc2cc(Cl)c(OC)c(Cl)c2)C(=O)NC(C(C)(C)O)C(=O)OC(c2ccccc2)C(C)/C=C/C=C(\C)C(OC)CC2OC2(C)C(=O)N1C (centres unmarked) [Compound (IV)]	0.41 µg/mL (≈ 0.493 µM)
